The values that follow come from ChEMBL document CHEMBL1138364 (J Med Chem, 2007).

Usually EC50 stands for the concentration needed to bring the measured effect to its halfway point. Higher therefore signals lower potency in that assay. Usually CC50 stands for the concentration giving 50% cytotoxicity. A lower CC50 goes with harm at low concentration. What is called IC50 is the concentration at which inhibition is half-maximal. Low values mean higher potency, high ones lower potency.

Data set [1] concerns Human alphaherpesvirus 3. The data set is described as follows: Antiviral activity against TK+ VZV YS in HEL cells after 5 days. It is filed as functional, organism-based. The following applies: Human alphaherpesvirus 3, YS, 120 h.
Data set [2] is described as follows: Cytotoxicity against HEL cells. The format is cell-based. The settings on record: human.
Data set [3] concerns Human alphaherpesvirus 3. The data set can be described thus: Antiviral activity against TK- VZV 07 in HEL cells after 5 days. It is filed as functional, organism-based. The following applies: Human alphaherpesvirus 3, 07, HEL, 120 h.
The subject of data set [4] is Human alphaherpesvirus 3. The data set is described as follows: Antiviral activity against TK+ VZV OKA in HEL cells after 5 days. It is filed as functional, organism-based. The settings on record: Human alphaherpesvirus 3, OKA, 120 h.
Data set [5] in a line: Inhibition of VZV-TK catalyzed dThd phosphorylation. Set-up: species or system Human alphaherpesvirus 3.
Data set [6] in a line: Cytotoxicity against HEL cells assessed as alteration in cell morphology. The format is cell-based. The following applies: human.
Data set [7] has as its system Human alphaherpesvirus 3. The data set is described as follows: Antiviral activity against TK- VZV YS in HEL cells after 5 days. The format is functional, organism-based. The following applies: Human alphaherpesvirus 3, YS, 120 h.

For `CCCCCc1ccc(-c2cc3cn([C@@H]4C[C@H](CO)[C@@H](O)C4)c(=O)nc3o2)cc1`, the EC50 is 0.28 µM in data set [1], more than 50 µM in data set [3] and 0.49 µM in data set [4]. Further, the CC50 in data set [2] is more than 50 µM. In data set [5], this molecule registered an IC50 of 44 µM. Moreover, in data set [6], the MCC is more than 50 µM.
For `O=c1[nH]c(=O)n([C@H]2C[C@H](O)[C@@H](CO)O2)cc1/C=C/Br` [BRIVUDINE], the EC50 is 0.005 µM in data set [1], more than 200 µM in data set [3], 0.005 µM in data set [4] and more than 200 µM in data set [7]. Also, in data set [2], the CC50 was more than 200 µM. The same molecule returned an IC50 in data set [5] of 1.3 µM. The MCC in data set [6] was more than 200 µM.
In the case of `CCCCCc1ccc(-c2cc3cn([C@H]4C[C@H](O)[C@@H](CO)O4)c(=O)nc3o2)cc1` [CF1743], the MCC in data set [6] is more than 20 µM.
As to `Nc1nc2c(ncn2COCCO)c(=O)[nH]1` [ACYCLOVIR], in data set [2], the 50% cytotoxic concentration (CC50) was more than 200 µM. Besides, the MCC in data set [6] was more than 200 µM.
